Laboratory results as given in patent publication US10738028B2, “Spiro three-membered ring, spiro five-membered ring peptide deformylase inhibitor and use thereof in antibacteria and anti-tumor” (priority 2016, dated 2020).
In brackets after ≈: the same amount, converted by molar mass.

Assays:
Format in all cases: cell-based
[1] = test system: Enterococcus faecium (EFM); test: MIC, two-fold agar dilution (CLSI), clinical isolates
Excerpt: (§1) 1. The invention adopts the two-fold agar dilution method recommended by the operating procedure of antimicrobial susceptibility testing set by American Clinical and Laboratory Standards Institute (CLSI) to determine the Minimum Inhibitory Concentration (MIC) of the test samples against the tested strains.

[2] = test system: methicillin-resistant Staphylococcus epidermidis (MRSE); test: as above
Excerpt: as §1

[3] = test system: Escherichia coli (including ESBLs, non-ESBLs); test: as above
Excerpt: as §1

[4] = test system: methicillin-sensitive Staphylococcus aureus (MSSA); test: as above
Excerpt: as §1

[5] = test system: methicillin-resistant Staphylococcus aureus (MRSA); test: as above
Excerpt: as §1

[6] = test system: Streptococcus pneoumoniae (SPN); test: as above
Excerpt: as §1

[7] = test system: methicillin-sensitive Staphylococcus epidermidis (MSSE); test: as above
Excerpt: as §1

[8] = test system: Enterococcus faecalis (EFA); test: as above
Excerpt: as §1

[9] = test system: Moraxella catarrhalis (BCA); test: as above
Excerpt: as §1

[10] = test system: HCT-116 colorectal cancer cell line; test: CCK-8 proliferation inhibition; conditions: Homo sapiens, HCT-116, 72 h, concentration of 30 μM; 72 hours; CCK-8; read-out: HCT116 inhibition rate/%
In short: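 2000 cells/well, McCoy's 5A + 10% newborn bovine serum; overnight attach, 37° C./5% CO2. Cpd from DMSO stock diluted in medium, 72 h. Readout: CCK-8 (1:10). Ctrl 1‰ DMSO.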

SMILES: CCCC[C@H](CN(O)C=O)C(=O)N1CC2(CC2)C[C@H]1C(=O)Nc1nncs1 [Example 23, (S)-5-((R)-2-((N-hydroxyformamido)methyl)hexanoyl)-N-(1,3,4-thiadiazol-2-yl)-5-azaspiro[2.4]heptane-6-carboxamide]
- MIC (anti-bacterial activity) ([1]; strain EFM 15-1): 1 µg/mL (≈ 2.53 µM)
- MIC (anti-bacterial activity) ([1]; strain EFM 15-2): 8 µg/mL (≈ 20.2 µM)
- MIC (anti-bacterial activity) ([1]; strain EFM 15-3): 0.5 µg/mL (≈ 1.26 µM)
- MIC (anti-bacterial activity) ([1]; strain EFM 15-4): 8 µg/mL (≈ 20.2 µM)
- MIC (anti-bacterial activity) ([1]; strain EFM 15-5): 0.5 µg/mL (≈ 1.26 µM)
- MIC (anti-bacterial activity) ([1]; strain EFM 15-6): 8 µg/mL (≈ 20.2 µM)
- MIC (anti-bacterial activity) ([2]; strain MRSE 15-1): 0.25 µg/mL (≈ 0.632 µM)
- MIC (anti-bacterial activity) ([2]; strain MRSE 15-2): 0.25 µg/mL (≈ 0.632 µM)
- MIC (anti-bacterial activity) ([2]; strain MRSE 15-3): 0.25 µg/mL (≈ 0.632 µM)
- MIC (anti-bacterial activity) ([2]; strain MRSE 15-7): 1 µg/mL (≈ 2.53 µM)
- MIC (anti-bacterial activity) ([3]; strain ECO+ 15-1): > 32 µg/mL
- MIC (anti-bacterial activity) ([3]; strain ECO+ 15-2): > 32 µg/mL
- MIC (anti-bacterial activity) ([3]; strain ECO+ 15-3): > 32 µg/mL
- MIC (anti-bacterial activity) ([3]; strain ECO+ 15-4): > 32 µg/mL
- MIC (anti-bacterial activity) ([3]; strain ECO− 15-1): > 32 µg/mL
- MIC (anti-bacterial activity) ([3]; strain ECO− 15-2): > 32 µg/mL
- MIC (anti-bacterial activity) ([3]; strain ECO− 15-3): > 32 µg/mL
- MIC (anti-bacterial activity) ([3]; strain ECO− 15-4): > 32 µg/mL
- MIC (anti-bacterial activity) ([4]; strain MSSA 15-3): 1 µg/mL (≈ 2.53 µM)
- MIC (anti-bacterial activity) ([4]; strain MSSA 15-4): 1 µg/mL (≈ 2.53 µM)
- MIC (anti-bacterial activity) ([4]; strain MSSA 15-5): 0.25 µg/mL (≈ 0.632 µM)
- MIC (anti-bacterial activity) ([4]; strain MSSA 15-6): 0.25 µg/mL (≈ 0.632 µM)
- MIC (anti-bacterial activity) ([5]; strain MRSA 15-1): 0.25 µg/mL (≈ 0.632 µM)
- MIC (anti-bacterial activity) ([5]; strain MRSA 15-2): 2 µg/mL (≈ 5.06 µM)
- MIC (anti-bacterial activity) ([5]; strain MRSA 15-3): 0.25 µg/mL (≈ 0.632 µM)
- MIC (anti-bacterial activity) ([5]; strain MRSA 15-4): 2 µg/mL (≈ 5.06 µM)
- MIC (anti-bacterial activity) ([6]; strain SPN 16-2): 15 µg/mL (≈ 37.9 µM)
- MIC (anti-bacterial activity) ([6]; strain SPN 16-4): 1 µg/mL (≈ 2.53 µM)
- MIC (anti-bacterial activity) ([7]; strain MSSE 15-3): 0.25 µg/mL (≈ 0.632 µM)
- MIC (anti-bacterial activity) ([7]; strain MSSE 15-4): 0.25 µg/mL (≈ 0.632 µM)
- MIC (anti-bacterial activity) ([7]; strain MSSE 15-5): 0.25 µg/mL (≈ 0.632 µM)
- MIC (anti-bacterial activity) ([7]; strain MSSE 15-6): 0.25 µg/mL (≈ 0.632 µM)
- MIC (anti-bacterial activity) ([8]; strain EFA 15-1): 32 µg/mL (≈ 80.9 µM)
- MIC (anti-bacterial activity) ([8]; strain EFA 15-2): 32 µg/mL (≈ 80.9 µM)
- MIC (anti-bacterial activity) ([8]; strain EFA 15-3): 1 µg/mL (≈ 2.53 µM)
- MIC (anti-bacterial activity) ([8]; strain EFA 15-4): 32 µg/mL (≈ 80.9 µM)
- MIC (anti-bacterial activity) ([8]; strain EFA 15-5): 32 µg/mL (≈ 80.9 µM)
- MIC (anti-bacterial activity) ([8]; strain EFA 15-6): 32 µg/mL (≈ 80.9 µM)
- MIC (anti-bacterial activity) ([8]; strain EFA 15-9): 32 µg/mL (≈ 80.9 µM)
- MIC (anti-bacterial activity) ([9]; strain BCA 14-1): 8 µg/mL (≈ 20.2 µM)
- MIC (anti-bacterial activity) ([9]; strain BCA 14-4): 4 µg/mL (≈ 10.1 µM)
- MIC (anti-bacterial activity) ([9]; strain BCA 14-5): 1 µg/mL (≈ 2.53 µM)
- MIC (anti-bacterial activity) ([9]; strain BCA 14-6): 4 µg/mL (≈ 10.1 µM)
- MIC (anti-bacterial activity) ([9]; strain BCA 14-7): 2 µg/mL (≈ 5.06 µM)
- MIC (anti-bacterial activity) ([9]; strain BCA 14-8): 2 µg/mL (≈ 5.06 µM)
- MIC (anti-bacterial activity) ([9]; strain BCA 14-10): 1 µg/mL (≈ 2.53 µM)
- inhibition at 30 µM [10]: 7%

SMILES: CCCC[C@H](CN(O)C=O)C(=O)N1CC2(CC2)C[C@H]1c1nc2ccccc2n1CCN(C)C [Example 24]
- MIC (anti-bacterial activity) ([1]; strain EFM 15-1): 4 µg/mL (≈ 8.78 µM)
- MIC (anti-bacterial activity) ([1]; strain EFM 15-2): 8 µg/mL (≈ 17.6 µM)
- MIC (anti-bacterial activity) ([1]; strain EFM 15-3): 2 µg/mL (≈ 4.39 µM)
- MIC (anti-bacterial activity) ([1]; strain EFM 15-4): 8 µg/mL (≈ 17.6 µM)
- MIC (anti-bacterial activity) ([1]; strain EFM 15-5): 4 µg/mL (≈ 8.78 µM)
- MIC (anti-bacterial activity) ([1]; strain EFM 15-6): 8 µg/mL (≈ 17.6 µM)
- MIC (anti-bacterial activity) ([2]; strain MRSE 15-1): 8 µg/mL (≈ 17.6 µM)
- MIC (anti-bacterial activity) ([2]; strain MRSE 15-2): 8 µg/mL (≈ 17.6 µM)
- MIC (anti-bacterial activity) ([2]; strain MRSE 15-3): 8 µg/mL (≈ 17.6 µM)
- MIC (anti-bacterial activity) ([2]; strain MRSE 15-7): 8 µg/mL (≈ 17.6 µM)
- MIC (anti-bacterial activity) ([3]; strain ECO+ 15-1): 8 µg/mL (≈ 17.6 µM)
- MIC (anti-bacterial activity) ([3]; strain ECO+ 15-2): 16 µg/mL (≈ 35.1 µM)
- MIC (anti-bacterial activity) ([3]; strain ECO+ 15-3): 16 µg/mL (≈ 35.1 µM)
- MIC (anti-bacterial activity) ([3]; strain ECO+ 15-4): 16 µg/mL (≈ 35.1 µM)
- MIC (anti-bacterial activity) ([3]; strain ECO− 15-1): 8 µg/mL (≈ 17.6 µM)
- MIC (anti-bacterial activity) ([3]; strain ECO− 15-2): 16 µg/mL (≈ 35.1 µM)
- MIC (anti-bacterial activity) ([3]; strain ECO− 15-3): 32 µg/mL (≈ 70.2 µM)
- MIC (anti-bacterial activity) ([3]; strain ECO− 15-4): 16 µg/mL (≈ 35.1 µM)
- MIC (anti-bacterial activity) ([4]; strain MSSA 15-3): 8 µg/mL (≈ 17.6 µM)
- MIC (anti-bacterial activity) ([4]; strain MSSA 15-4): 8 µg/mL (≈ 17.6 µM)
- MIC (anti-bacterial activity) ([4]; strain MSSA 15-5): 8 µg/mL (≈ 17.6 µM)
- MIC (anti-bacterial activity) ([4]; strain MSSA 15-6): 8 µg/mL (≈ 17.6 µM)
- MIC (anti-bacterial activity) ([5]; strain MRSA 15-1): 8 µg/mL (≈ 17.6 µM)
- MIC (anti-bacterial activity) ([5]; strain MRSA 15-2): 32 µg/mL (≈ 70.2 µM)
- MIC (anti-bacterial activity) ([5]; strain MRSA 15-3): 32 µg/mL (≈ 70.2 µM)
- MIC (anti-bacterial activity) ([5]; strain MRSA 15-4): 8 µg/mL (≈ 17.6 µM)
- MIC (anti-bacterial activity) ([6]; strain SPN 16-2): 4 µg/mL (≈ 8.78 µM)
- MIC (anti-bacterial activity) ([6]; strain SPN 16-4): 1 µg/mL (≈ 2.19 µM)
- MIC (anti-bacterial activity) ([7]; strain MSSE 15-3): 8 µg/mL (≈ 17.6 µM)
- MIC (anti-bacterial activity) ([7]; strain MSSE 15-4): 2 µg/mL (≈ 4.39 µM)
- MIC (anti-bacterial activity) ([7]; strain MSSE 15-5): 2 µg/mL (≈ 4.39 µM)
- MIC (anti-bacterial activity) ([7]; strain MSSE 15-6): 2 µg/mL (≈ 4.39 µM)
- MIC (anti-bacterial activity) ([8]; strain EFA 15-1): 32 µg/mL (≈ 70.2 µM)
- MIC (anti-bacterial activity) ([8]; strain EFA 15-2): 32 µg/mL (≈ 70.2 µM)
- MIC (anti-bacterial activity) ([8]; strain EFA 15-3): 8 µg/mL (≈ 17.6 µM)
- MIC (anti-bacterial activity) ([8]; strain EFA 15-4): 32 µg/mL (≈ 70.2 µM)
- MIC (anti-bacterial activity) ([8]; strain EFA 15-5): 32 µg/mL (≈ 70.2 µM)
- MIC (anti-bacterial activity) ([8]; strain EFA 15-6): 32 µg/mL (≈ 70.2 µM)
- MIC (anti-bacterial activity) ([8]; strain EFA 15-9): 32 µg/mL (≈ 70.2 µM)
- MIC (anti-bacterial activity) ([9]; strain BCA 14-1): 32 µg/mL (≈ 70.2 µM)
- MIC (anti-bacterial activity) ([9]; strain BCA 14-4): 16 µg/mL (≈ 35.1 µM)
- MIC (anti-bacterial activity) ([9]; strain BCA 14-5): 8 µg/mL (≈ 17.6 µM)
- MIC (anti-bacterial activity) ([9]; strain BCA 14-6): 32 µg/mL (≈ 70.2 µM)
- MIC (anti-bacterial activity) ([9]; strain BCA 14-7): 8 µg/mL (≈ 17.6 µM)
- MIC (anti-bacterial activity) ([9]; strain BCA 14-8): 8 µg/mL (≈ 17.6 µM)
- MIC (anti-bacterial activity) ([9]; strain BCA 14-10): 8 µg/mL (≈ 17.6 µM)
- inhibition at 30 µM [10]: 2%
